Source: patent EP4534539A1, “DIDEUTERATED CAMPTOTHECIN DERIVATIVE AND PREPARATION METHOD THEREFOR” (priority 2022, dated 2023)
Like-named read-outs stand apart in the source and are kept apart here.

Columns and labels:
[1] = Pharmacokinetic test - rats; parameters: species or system SD rats; settings: in vivo, 3 mg/kg, Rat PK, IV, 3 mpk, single injection, plasma; for Vd: read-out: Vz
Protocol: Experimental objective: To evaluate the pharmacokinetic characteristics of the compound of the present application in rats.
SD rats (Beijing Vital River Laboratory Animal Technology Co., Ltd.) were randomly divided, 6 rats/group, half male and half female, and were injected once with a sample (10% DMSO-90% (20% 2-hydroxypropyl-β-cyclodextrin-physiological saline), diluted according to the dose). Plasma samples were respectively taken before administration, and at 5 min, 30 min, 1 h, 2 h, 4 h, 6 h, 8 h, 10 h, and 24 h after administration. The sample concentration in plasma was determined by LC-MS method, and pharmacokinetic parameters were calculated (see Table 4). Table 4 Pharmacokinetic characteristics of the compound of the present application in SD rats

[2] = tested on: NCI-N87 cells; test: Inhibitory activity on NCI-N87 cells (MTT); assay type: cell-based, human; settings: for IC50: Homo sapiens, read-out: NCI-N87 IC50
Protocol: (§1) MDA-MB-468 cells (purchased from ATCC) were cultured in L-15 culture medium (purchased from Sigma-Aldrich), NCI-N87 cells (purchased from ATCC) were cultured in RPMI-1640 culture medium (purchased from Gibco), and HT29 cells (purchased from ATCC) were cultured in McCoy's 5A culture medium (purchased from Gibco), each of which was supplemented with 10% fetal bovine serum and 1% penicillin-streptomycin solution, and placed in a 5% CO2 incubator at 37°C. The cells were seeded in 96-well plates at 3000 cells per well and cultured overnight. Different concentrations of drugs were respectively added, and the cells were placed in a normal incubator (21% O2, 5% CO2, and 74% N2) and cultured for 72 h. 100 µL of culture medium was removed. 10 µL of MTT solution (5 mg/mL) was added. Then the cells were cultured in the incubator for 4 hours. 50 µL of triple combination solution (10% SDS, 5% isobutanol, and 0.012 mol/L HCl) was added. The cells were placed in the incubator overnight. OD values were measured at 540 nm wavelength, and median inhibition concentration IC50 of the drug on tumor cell growth was calculated (n=3).

[3] = tested on: MDA-MB-468 cells; test: Inhibitory activity on MDA-MB-468 cells (MTT); assay type: cell-based; settings: for IC50: Homo sapiens, read-out: MDA-MB-468 IC50
Protocol: as §1

[4] = tested on: HT29 cells; test: Inhibitory activity on HT29 cells (MTT); assay type: cell-based, human; settings: for IC50: Homo sapiens, read-out: HT29 IC50
Protocol: as §1

[5] = assay type: in vivo; settings: SD rats, intravenous administration once a day for 7 consecutive days; result in words
Source text: The possible toxic reactions and severity thereof of the drug on SD rats were observed after continuous intravenous administration for 7 days. The toxicity of the compound in rodents was preliminarily evaluated. SD rats (Beijing Vital River Laboratory Animal Technology Co., Ltd.) were randomly divided, 6 rats/group, half male and half female, and injected with samples (preparation: 10% DMSO-90% (20% 2-hydroxypropyl-β-cyclodextrin-physiological saline), diluted according to the dose) once a day for 7 consecutive days. Weight and food intake were monitored every two days, and the status of the animals was observed. Blood samples were taken 24 h after the last dose for hematology, blood biochemistry and coagulation indexes.

[6] = tested on: HCT116 cells; test: HCT-116 cell inhibitory activity test (MTT); assay type: cell-based; settings: Homo sapiens, read-out: IC50 Activity
Protocol: HCT116 cells (purchased from ATCC) were cultured in a 5% CO2 incubator at 37 °C using DMEM culture medium (purchased from Gibco) supplemented with 10% fetal bovine serum and 1% penicillin-streptomycin solution. The cells were seeded in 96-well plates at 3000 cells per well and cultured overnight. Different concentrations of drugs were respectively added, and the cells were placed in a normal incubator (21 % O2, 5% CO2, and 74% N2) and cultured for 72 h. 100 µL of culture medium was removed. 10 µL of MTT solution (5 mg/mL) was added. Then the cells were cultured in the incubator for 4 hours. 50 µL of triple combination solution (10% SDS, 5% isobutanol, and 0.012 mol/L HCl) was added. The cells were placed in the incubator overnight. OD values were measured at 540 nm wavelength, and median inhibition concentration IC50 of the drug on tumor cell growth was calculated (n=3). Compounds with activity designated as "A" provide IC50≤10nM. Compounds with activity designated as "B" provide IC50 of 10 nM to 100 nM. Compounds with activity designated as "C" provide IC50 of 100 nM to 1000 nM. Compounds with activity designated as "D" provide IC50 of 1000 nM to 10000 nM. Titer (nM); Efficacy (IC50).

[7] = Pharmacokinetic test - mice; assay type: in vivo, Balb/c mice; settings: mouse, 3 mg/kg, Mice PK, IV, 3 mpk, single injection, plasma
Protocol: Experimental objective: To evaluate the pharmacokinetic characteristics of the compound of the present application in mice.
Balb/c mice (purchased from Beijing Vital River) were randomly divided, 12 mice/group, half male and half female, and were injected once with a sample (10% DMSO-90% (20% 2-hydroxypropyl-β-cyclodextrin-physiological saline), diluted according to the dose). Cross samples of plasma were respectively taken before administration, and at 5 min, 30 min, 1 h, 2 h, 4 h, 6 h, 8 h, 10 h, and 24 h after administration. The sample concentration in plasma was determined by LC-MS method, and pharmacokinetic parameters were calculated (see Table 3). Table 3 Pharmacokinetic characteristics of the compound of the present application in mice

SMILES	AUC(0-inf) [1] [ng·h/mL]	Cmax [1] [ng/mL]	clearance [1] [mL/min/kg]	half-life [1] [h]	Vd [1] [L/kg]	NCI-N87 Inh.max ([2]; NCI-N87 cells, 72 h, MTT) [%]	MDA-MB-468 Inh.max ([3]; MDA-MB-468 cells, 72 h, MTT) [%]	HT29 Inh.max ([4]; HT29 cells, 72 h, MTT) [%]	safety [5]	other results
[2H]C1([2H])OC(=O)[C@](O)(CC)c2cc3n(c(=O)c21)Cc1c-3nc2ccc(O)cc2c1CC [Compound A-9]	99.5	288	167	1.35	19.5	>80	>80	>90	better safety	IC50 ([2]; NCI-N87, 72 h): < 10 nM; IC50 ([3]; MDA-MB-468, 72 h): < 10 nM; IC50 ([4]; HT-29, 72 h): < 10 nM; IC50 ([6]; HCT-116, 72 h): < 10 nM
[2H]C1([2H])OC(=O)[C@](O)(CC)c2cc3n(c(=O)c21)Cc1c-3nc2cc(F)c(C)c3c2c1[C@@H](N)CC3 [Compound A-11]	135	215	381	0.91	30.1	>70	>80	>90	better safety	IC50 ([2]; NCI-N87 cells, 72 h, MTT, n=3): < 10 nM; AUC(0-inf) [7]: 321 ng·h/mL; Cmax [7]: 902 ng/mL; clearance [7]: 156 mL/min/kg; half-life [7]: 1.19 h; Vd ([7]; read-out: Vz): 16 L/kg; IC50 ([3]; MDA-MB-468 cells, 72 h, MTT, n=3): < 10 nM; IC50 ([4]; HT-29, HT29 cells, 72 h, MTT, n=3): < 10 nM; IC50 ([6]; HCT-116, HCT116 cells, 72 h, MTT, n=3): < 10 nM
